Reference: US11510933B2, “Use of Pulsatilla chinensis extract in the preparation of drugs for treatment of viral and/or bacterial diseases” (priority 2018, dated 2022)

Key:
[1] = test system: canine distemper; test: treatment of canine distemper; assay type: in vivo, dogs; details: for Cure / Death: 14 days, 10 dogs treated
Experimental: Anemoside B4 injection prepared in example 3, with a concentration of 50 mg/mL.
Dogs suffering from canine distemper are cases received by various pet hospitals in Chengdu.
According to the clinical symptoms, canine distemper can be divided into early, middle and late stages.
The vomit is mucus or yellow liquid, while the stool is dark brown or covered with mucus. As the progress of the disease course, dogs with canine distemper often develop secondary bacterial infections due to their decreased resistance.
Anemoside B4 injection was intravenously injected, 2 mL/time in low-dose group, 4 mL/time in medium-dose group, 8 mL/time in high-dose group, once a day; anemoside B4 injection was intramuscularly injected, 1 mL/time in low-dose group, 2 mL/time in the middle-dose group, 4 mL/time in the high-dose group, twice a day; the treatment was kept for 14 days.

[2] = test system: canine renal failure; test: treatment of canine renal failure; assay type: in vivo, dogs; details: 14 days, n = 10
[3] = high-dose, intramuscular injection 4 mL/time (50 mg/mL), twice a day
[4] = high-dose, intravenous injection 8 mL/time (50 mg/mL), once a day
[5] = low-dose, intramuscular injection 1 mL/time (50 mg/mL), twice a day
[6] = low-dose, intravenous injection 2 mL/time (50 mg/mL), once a day
[7] = medium-dose, intramuscular injection 2 mL/time (50 mg/mL), twice a day
[8] = medium-dose, intravenous injection 4 mL/time (50 mg/mL), once a day

With C=C(C)[C@@H]1CC[C@]2(C(=O)O[C@@H]3O[C@H](CO[C@@H]4O[C@H](CO)[C@@H](O[C@@H]5O[C@@H](C)[C@H](O)[C@@H](O)[C@H]5O)[C@H](O)[C@H]4O)[C@@H](O)[C@H](O)[C@H]3O)CC[C@]3(C)[C@H](CC[C@@H]4[C@@]5(C)CC[C@H](O[C@@H]6OC[C@H](O)[C@H](O)[C@H]6O[C@@H]6O[C@@H](C)[C@H](O)[C@@H](O)[C@H]6O)[C@@](C)(CO)[C@@H]5CC[C@]43C)[C@H]12 [anemoside B4] as the compound, how does the “therapeutic effect on canine distemper (conclusion in words)” value ([1]; dogs) read?
The value was “a better therapeutic effect on canine distemper”.

And the Cure [1, 3]?
Its Cure is 5 dog.

What about the Death [1, 3] of the same compound?
Its Death is 5 dog.

And the Cure [1, 4]?
Its Cure is 6 dog.

What about the Death [1, 4] of the same compound?
The Death was 4 dog.

And the Cure [1, 5]?
The Cure was 3 dog.

And the Death [1, 5]?
Its Death is 7 dog.

What about the Cure [1, 6] of the same compound?
The Cure was 4 dog.

And the Death [1, 6]?
Its Death is 6 dog.

What about the Cure [1, 7] of the same compound?
The Cure was 4 dog.

And the Death [1, 7]?
Its Death is 6 dog.

What about the Cure [1, 8] of the same compound?
Its Cure is 5 dog.

And the Death [1, 8]?
Its Death is 5 dog.

What about the Body temperature [2, 3] of the same compound?
Its Body temperature is 38.5 ± 0.2 °C.

And the Creatinine [2, 3]?
Its Creatinine is 100 ± 30 µmol/L.

And the Inorganic phosphous [2, 3]?
Its Inorganic phosphous is 1.4 ± 0.08 mmol/L.

And the Mortality rate [2, 3]?
Its Mortality rate is 40%.

What about the Urea [2, 3] of the same compound?
Its Urea is 14.2 ± 0.4 mmol/L.

And the Body temperature [2, 4]?
Its Body temperature is 38.6 ± 0.4 °C.

What about the Creatinine [2, 4] of the same compound?
The Creatinine was 109 ± 20 µmol/L.

What about the Inorganic phosphous [2, 4] of the same compound?
Its Inorganic phosphous is 0.9 ± 0.06 mmol/L.

And the Mortality rate [2, 4]?
The Mortality rate was 20%.

And the Urea [2, 4]?
Its Urea is 8.7 ± 0.3 mmol/L.

What about the Body temperature [2, 5] of the same compound?
Its Body temperature is 37.8 ± 0.3 °C.

What about the Creatinine [2, 5] of the same compound?
Its Creatinine is 130 ± 19 µmol/L.

What about the Inorganic phosphous [2, 5] of the same compound?
The Inorganic phosphous was 1.6 ± 0.02 mmol/L.

What about the Mortality rate [2, 5] of the same compound?
Its Mortality rate is 60%.

What about the Urea [2, 5] of the same compound?
The Urea was 20.8 ± 0.5 mmol/L.

What about the Body temperature [2, 6] of the same compound?
The Body temperature was 38.3 ± 0.5 °C.

And the Creatinine [2, 6]?
The Creatinine was 117 ± 25 µmol/L.

What about the Inorganic phosphous [2, 6] of the same compound?
Its Inorganic phosphous is 1.1 ± 0.05 mmol/L.

And the Mortality rate [2, 6]?
The Mortality rate was 40%.

And the Urea [2, 6]?
The Urea was 11.8 ± 0.6 mmol/L.

And the Body temperature [2, 7]?
The Body temperature was 38.2 ± 0.4 °C.

What about the Creatinine [2, 7] of the same compound?
Its Creatinine is 120 ± 26 µmol/L.

And the Inorganic phosphous [2, 7]?
The Inorganic phosphous was 2.0 ± 0.03 mmol/L.

And the Mortality rate [2, 7]?
The Mortality rate was 50%.

What about the Urea [2, 7] of the same compound?
Its Urea is 17.5 ± 0.7 mmol/L.

What about the Body temperature [2, 8] of the same compound?
The Body temperature was 38.5 ± 0.3 °C.

What about the Creatinine [2, 8] of the same compound?
Its Creatinine is 115 ± 12 µmol/L.

What about the Inorganic phosphous [2, 8] of the same compound?
Its Inorganic phosphous is 1.5 ± 0.04 mmol/L.

What about the Mortality rate [2, 8] of the same compound?
The Mortality rate was 30%.

And the Urea [2, 8]?
Its Urea is 9.9 ± 0.8 mmol/L.
